This is an account of results in PMC4731795, “New α-glucosidase inhibitors from marine algae-derived Streptomyces sp. OUCMDZ-3434” (Scientific Reports, 2016).

For data set [1], the target named is α-glucosidase. Kind of data set: α-Glucosidase inhibitory effect assay with pNPG as substrate. The following applies: 37 °C, 15 min, pH 6.8, read-out: IC50, α-glucosidase inhibition. Type of data set: biochemical. How it is done: The inhibitory effects were assayed as described preciously. The sample was dissolved in sodium phosphate buffer (PBS, pH 6.8) at three concentrations. A volume of 10 μL of the sample solution, 20 μL of PBS and 20 μL of […] p-nitrophenyl-α-D-glucopyranoside (pNPG) solution (in phosphate buffer) were mixed in a 96-well microplate and incubated at 37 °C for 5 min. […] After incubating at 37 °C for 15 min, the absorbance at 405 nm was recorded by a Spectra max 190 micro plate reader (Molecular Devices Inc.).

The test system of data set [2] is murine small intestinal IEC-6 cells. Briefly: Cytotoxic assay by MTT method. Type of data set: cell-based. The following applies: for selectivity index (SI): CC50 (IEC-6) relative to IC50 (α-glucosidase). Here is the method: (§1) The cytotoxicity on murine small intestinal IEC-6 cells were assayed by MTT (3-[4,5-dimethyl thiazol-2-yl]-2,5-diphenyl tetrazolium bromide) method. The IEC-6 cells were cultured in Dulbecco’s modified Eagle’s medium (DMEM) supplemented with 5% fetal bovine serum (FBS) under a humidified atmosphere of 5% CO2 and 95% air at 37 °C. Cell suspension, 100 μL, at a density of 2 × 10^4 cell mL^−1 was plated in 96-well microtiter plates and exposed to different concentrations of compounds in triplicate for 72 h. The initial concentrations of compounds were 2 mg/mL in DMSO, and then were diluted into 625, 125, 25, 5, and 1 μg/mL with RPMI-1640 medium, respectively. The experiments were divided into blank control, testing compounds and the positive control groups, and each group was set up three parallels. Then, 10 μL of PBS containing MTT (final concentration: 0.5 mg/mL) was added to each well. After 4 h incubation at 37 °C, the supernatant was removed and 200 μL of DMSO was added to each well to solubilize the formazan crystals. After vigorous shaking, absorbance values were measured in a microplate reader (Bio-Rad, USA) at 570 nm. The cytotoxicity was represented at these concentrations as [(ODblank − ODdrug)/ODblank × 100%]. The CC50 value, defined as the compound concentration necessary to induce cell cytotoxicity by 50%, was calculated by SPSS (Statistical Product and Service Solutions) v19.0 software.
Background: Formazan colour is commonly taken as a measure of viable cells.

Data set [3] in a line: Cytotoxic assay by MTT method. Type of data set: cell-based, murine. The following applies: murine, IEC-6 small intestinal cells, MTT, 72 h exposure; read-out: CC50, cytotoxicity on IEC-6 cell line. How it is done:
as §1

Data set [4] concerns α-glucosidase. Briefly: Kinetics of α-glucosidase inhibition (Lineweaver-Burk plot analysis). The following applies: for mode of α-glucosidase inhibition: Lineweaver-Burk plot; for Ki: pNPG 0.5–2.0 mM, 37 °C, 15 min. Type of data set: biochemical. Here is the method:
Optimal amounts of compounds 1 and 2 used were determined based on the enzyme inhibitory activity assay.

Turning to `O=c1cc(O)cc(-c2c(-c3ccccc3)cc(O)c3c(O)cccc23)o1` [Compound 5, wailupemycin G], the IC50 – broadly, the midpoint of a concentration-inhibition curve – on α-glucosidase [1] is 239 µM. Moreover, the “selectivity index (SI)” value in data set [2] was 12.3. Moreover, the CC50 (as a rule, the concentration giving 50% cytotoxicity) at 72 h in data set [3] stood at 2950 µM.
For `O=C1C[C@](O)(c2ccccc2)[C@H](c2cc(O)c(Cc3c(O)cc(-c4c(-c5ccccc5)cc(O)c5c(O)cccc45)oc3=O)c(=O)o2)c2cccc(O)c21` [Compound 2, Wailupemycin I], in the data set with α-glucosidase [4], the “mode of α-glucosidase inhibition” value is given as “competitive” and the affinity, expressed as Ki, was 6 µM. The IC50 at α-glucosidase [1] amounted to 8.3 µM. Besides, the “selectivity index (SI)” value in data set [2] was found to be 158.5. Also, in data set [3], the CC50 at 72 h was 1320 µM.
On the same counts, the results for `O=C1C[C@](O)(c2ccccc2)[C@@H](c2cc(O)c(Cc3c(O)cc(-c4c(-c5ccccc5)cc(O)c5c(O)cccc45)oc3=O)c(=O)o2)c2cccc(O)c21` [Compound 1, Wailupemycin H] are “competitive”, 16.8 µM, 19.7 µM, 14.2 and 280 µM.
For `O=C1CC(O)(c2ccccc2)C(c2cc(O)cc(=O)o2)c2cccc(O)c21` (stereo not shown) [Compound 3, Wailupemycin D], the IC50 at α-glucosidase [1] is 989 µM. The “selectivity index (SI)” value in data set [2] amounted to 2.8. The CC50 at 72 h in data set [3] amounted to 2750 µM.
Consider `O=C1CC(O)(c2ccccc2)C(c2cc(O)cc(=O)o2)c2cccc(O)c21` (stereo not shown) [Compound 4, Wailupemycin E], for which the IC50 on α-glucosidase [1] was found to be 392 µM. In addition, the “selectivity index (SI)” value in data set [2] is 7.6. Besides, the CC50 in data set [2] (MTT, 72 h exposure, read-out: CC50, cytotoxicity on IEC-6 cell line) was 2980 µM.
